These results are taken from patent US20070197608A1, “Piperazines as oxytocin agonists” (Ferring B.V., priority 2003, published 2007).

The target in this test is T1, human OT receptor (Homo sapiens, UniProt P30559).
T1 construct: expressed in transfected cells; host or cells: mammalian cell line, e.g. Chinese hamster ovary (CHO), stably or transiently transfected; co-transfected with a firefly luciferase reporter (e.g. NFAT promoter)
T1 sequence (P30559 1-389): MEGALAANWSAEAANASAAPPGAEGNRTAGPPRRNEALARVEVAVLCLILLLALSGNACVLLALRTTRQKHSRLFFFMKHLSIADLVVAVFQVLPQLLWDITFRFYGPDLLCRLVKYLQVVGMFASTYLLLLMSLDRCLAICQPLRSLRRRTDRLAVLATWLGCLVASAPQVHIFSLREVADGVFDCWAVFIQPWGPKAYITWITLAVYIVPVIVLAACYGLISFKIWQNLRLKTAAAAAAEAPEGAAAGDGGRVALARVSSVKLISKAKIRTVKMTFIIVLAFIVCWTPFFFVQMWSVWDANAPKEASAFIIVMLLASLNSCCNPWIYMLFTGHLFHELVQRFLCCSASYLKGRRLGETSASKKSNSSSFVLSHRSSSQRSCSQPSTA
Description: human OT receptor agonist assay, luciferase reporter (NFAT promoter) in transfected CHO cells. The class given is cell-based. The following applies: for OT (efficacy): maximal efficacy compared to the maximal stimulation observed with OT; for EC50: concentration at which the response is 50% of the maximum, 4-parameter logistic fit, luciferase reporter in cells expressing the human OT receptor. As to the method:
In addition, the cells are transfected with a gene for firefly luciferase under the control of a suitable promoter, e.g. NFAT promoter. Contact of the OT receptor by an agonist leads to stimulation of luciferase synthesis, the extent of which is measured using commercially available reagents. Concentrations at which the response is 50% of the maximum are calculated by fitting of data to 4-parameter logistic curves. Maximal efficacy is calculated compared to the maximal stimulation observed with OT.

`Cc1cc(C(=O)N2Cc3cnn(C)c3Nc3ccccc32)ccc1CNC(=O)N1CCN(Cc2cc(O)cc(O)c2)CC1` [Example 1, 4-(3,5-Dihydroxy-benzyl)-piperazine-1-carboxylic acid 2-methyl-4-(3-methyl-4,10-dihydro-3H-2,3,4,9-tetraaza-benzo[f]azulene-9-carbonyl)-benzylamide]: the “OT (efficacy)” value worked out at 76%.
As for `Cc1cc(C(=O)N2Cc3cnn(C)c3Nc3ccccc32)cc(C)c1CNC(=O)N1CCN(Cc2cc(O)cc(O)c2)CC1` [Example 2, 4-(3,5-Dihydroxy-benzyl)-piperazine-1-carboxylic acid 2,6-dimethyl-4-(3-methyl-4,10-dihydro-3H-2,3,4,9-tetraaza-benzo[f]azulene-9-carbonyl)-benzylamide], it took 24 nM to reach a half-maximal effect (EC50) and the “OT (efficacy)” value was 16%.
As to `Cn1ncc2c1Nc1ccccc1N(C(=O)c1ccc(CNC(=O)N3CCN(Cc4cc(O)cc(O)c4)CC3)cc1Cl)C2` [Example 3, 4-(3,5-Dihydroxy-benzyl)-piperazine-1-carboxylic acid 3-chloro-4-(3-methyl-4,10-dihydro-3H-2,3,4,9-tetraaza-benzo[f]azulene-9-carbonyl)-benzylamide], the EC50 was found to be 58 nM and the “OT (efficacy)” value amounted to 41%.
Turning to `Cn1ncc2c1Nc1ccccc1N(C(=O)c1ccc(CNC(=O)N3CCN(Cc4cc(O)cc(O)c4)CC3)c(F)c1)C2` [Example 4, 4-(3,5-Dihydroxy-benzyl)-piperazine-1-carboxylic acid 2-fluoro-4-(3-methyl-4,10-dihydro-3H-2,3,4,9-tetraaza-benzo[f]azulene-9-carbonyl)-benzylamide], the EC50 came out at 74 nM and the “OT (efficacy)” value is recorded as 51%.
Take `Cc1cc(C(=O)N2Cc3cnn(C)c3Nc3ccccc32)ccc1CNC(=O)N1CCN(Cc2cccc(C(=O)N(C)C)c2)CC1` [Example 5, 4-(3-Dimethylcarbamoyl-benzyl)-piperazine-1-carboxylic acid 2-methyl-4-(3-methyl-4,10-dihydro-3H-2,3,4,9-tetraaza-benzo[f]azulene-9-carbonyl)-benzylamide]: the midpoint of the response, the EC50, lay at 33 nM and the “OT (efficacy)” value was 13%.
Regarding `Cc1cc(C(=O)N2Cc3cnn(C)c3Nc3ccccc32)ccc1CNC(=O)N1CCN(Cc2cccc(C(=S)N(C)C)c2)CC1` [Example 6, 4-(3-Dimethylthiocarbamoyl-benzyl)-piperazine-1-carboxylic acid 2-methyl-4-(3-methyl-4,10-dihydro-3H-2,3,4,9-tetraaza-benzo[f]azulene-9-carbonyl)-benzylamide], the EC50 amounted to 190 nM and the “OT (efficacy)” value was 21%.
